Data on 4 compounds can be found in patent US9801949B2, “Combinations of albumin-based drug delivery systems” (KTB TUMORFORSCHUNGSGESELLSCHAFT MBH, priority 2012, dated 2017).

SMILES strings stand for the structures. Marks after values point to notes of the source that are not given here. Numbered stars: 1 amine (or outer) side, 2 acyl side, 3 side chain; on linkers, the order of the positions; unused ones are H or OH. Square brackets hold non-standard residues; d marks the D form. Side chains are listed from the residue outwards. Peptide text beside a SMILES is read from it. * marks the point of attachment. DAMPA = CN(Cc1cnc2nc(N)nc(N)c2n1)c1ccc(C(=O)*)cc1; Hexanoyl(6-maleimido) = O=C1C=CC(=O)N1CCCCCC(=O)*; γGlu = O=C(O)[C@H](CCC(=O)[*:2])N[*:1]

Data set [1] has as its system MiaPaCa-2 pancreatic carcinoma xenograft. Conditions: for toxic death: 7 mice per group, i.v. on days 10, 17, 24, dose per Table 1; for antitumor efficacy (in words): MiaPaCa-2 xenograft, up to end of experiment (day 43), doses as in Table 1; for Tumor volume (day 43): s.c. MiaPaCa-2 xenografts, i.v. on days 10, 17, 24, dose per Table 1, median initial tumor volume 0.062 cm^3. On the procedure: In vivo efficacy studies in the MiaPaCa-2 xenograft model were carried out with doxorubicin, the 6-maleimidocaproyl(hydrazone) derivative of doxorubicin (DOXO-EMCH), the albumin-binding prodrug of methotrexate AW054, a combination of the 6-maleimidocaproyl(hydrazone) derivative of doxorubicin (DOXO-EMCH) and the albumin-binding prodrug of methotrexate AW054, doxorubicin, methotrexate and a combination of doxorubicin and methotrexate.
DOXO-EMCH was dissolved in sterile 10 mM sodium phosphate, 5% D-(+)-glucose (pH 5.8) and the respective dose administered intravenously within 30 minutes after dissolution. All doses of DOXO-EMCH and AW054 administered in the studies are stated in doxorubicin and methotrexate equivalents, respectively. Adrimedac® from medac, Germany, was used as the doxorubicin reference (c=2 mg/mL). Methotrexate (Sodium salt from medac) was used as a stock solution (12.5 mg methotrexate/mL in 5% D-Glucose from Braun, sterile). The stock solution AW054 for intravenous administration was 2.0 mg AW054/mL in 5% D-Glucose from Braun, sterile.
For in vivo testing in the MiaPaCa-2 xenograft model, female NMRI: nu/nu mice (Taconic, Denmark) were used. The mice were held in individually ventilaged cages (IVC) under sterile and standardized environmental conditions (25±2° C. room temperature, 50±10% relative humidity, 12 hour light-dark-rhythm). They received autoclaved food and bedding (ssniff, Soest, Germany) and acidified (pH 4.0) drinking water ad libitum. All animal experiments were performed under the auspices of the German Animal Protection Law.
MiaPaCa-2 cells (5×10^6 cells/mouse) were transplanted subcutaneously (s.c.) into the left flank region of each mouse on day zero. Mice were randomly distributed to the experimental groups (7 mice per group). Treatment was initiated at day 10 when the tumors were grown to a size of ˜60 mm^3. Mice were treated on a weekly schedule with 3×6 mg/kg doxorubicin (MTD), 2×125 mg/kg methotrexate (MTD), 3×24 mg/kg DOXO-EMCH (doxorubicin equivalents) (MTD), 3×20 mg/kg AW054 (methotrexate equivalents) (MTD), and a combination of 3×12 mg/kg DOXO-EMCH and 3×10 mg/kg AW054 or a combination of 3×3 mg/kg doxorubicin and 3×62.5 mg/kg methotrexate. All compounds were injected once a week for three weeks (days 10, 17, 24). The injection volume was 0.2 mU20 g body weight. Tumor size was measured twice weekly with a caliper-like instrument in two dimensions. Individual tumor volumes (V) were calculated by the formula V=(length×[width]^2)/2 and related to the values on the first day of treatment (relative tumor volume, RTV). The experiment was ended on day 43. Statistical analysis was performed with the U-test (Mann and Whitney) with p<0.05. The body weight of mice was determined every 3 to 4 days.
Combination therapy with doxorubicin and methotrexate was carried out at in a three weekly schedule (i.v.) at half of their maximum tolerated dose (MTD), i.e. 3×3 mg/kg for doxorubicin and 3×62.5 mg/kg methotrexate. Both DOXO-EMCH and AW054 were administered simultaneously (i.v.) in a three weekly schedule at half of their maximum tolerated dose (MTD), i.e. 3×12 mg/kg for DOXO-EMCH (doxorubicin equivalents) and 3×10 mg/kg (methotrexate equivalents) and at their respective MTDs, i.e. 3×24 mg/kg for DOXO-EMCH (doxorubicin equivalents) and 3×20 mg/kg for AW054 (methotrexate equivalents) (see the following Table 1).

The test system of data set [2] is ovarian carcinoma xenograft model (OVCAR3). Conditions: cited from earlier work.
The conditions of data set [3]: conjugate formed with cysteine-34 of albumin; cited from earlier work.
For data set [4], the system named is several xenograft and orthotopic tumor models. Conditions: cited from earlier work.

With `C[C@@H](NC(=O)CCCCCN1C(=O)C=CC1=O)C(=O)N[C@@H](Cc1ccccc1)C(=O)N[C@@H](CCCCN)C(=O)N[C@@H](CCCCNC(=O)CC[C@H](NC(=O)c1ccc(N(C)Cc2cnc3nc(N)nc(N)c3n2)cc1)C(=O)O)C(=O)O` [AW054, EMC-D-Ala-Phe-Lys-Lys(γ-MTX)-OH] ({Hexanoyl(6-maleimido)}-[dA]FKK([γGlu-DAMPA])-OH), in data set [1], the toxic death came out at 0, the “antitumor efficacy (in words)” value is “only showed moderate antitumor effects” and the “Tumor volume (day 43)” value was 0.264 ± 0.226* cm^3. Also, in data set [2], the “efficacy compared to methotrexate” value is on record as “superior compared to methotrexate”. For the same compound, the “stability of albumin conjugate in human plasma” value in data set [3] is given as “stable in human plasma”.

As to `COc1cccc2c1C(=O)c1c(O)c3c(c(O)c1C2=O)CC(O)(C(CO)=NNC(=O)CCCCCN1C(=O)C=CC1=O)CC3OC1CC(N)C(O)C(C)O1` (centres unmarked) [DOXO-EMCH, 6-maleimidocaproyl(hydrazone) derivative of doxorubicin], in data set [1], the “antitumor efficacy (in words)” value is reported as “partial remission” and the “Tumor volume (day 43)” value was 0.034 ± 0.064* cm^3. In addition, the “efficacy compared to free doxorubicin” value in data set [4] is on record as “superior efficacy over free doxorubicin”.

For `COc1cccc2c1C(=O)c1c(O)c3c(c(O)c1C2=O)C[C@@](O)(C(=O)CO)C[C@@H]3O[C@H]1C[C@H](N)[C@H](O)[C@H](C)O1` [Doxorubicin, doxorubicin], in data set [1], the toxic death is reported as 0, the “antitumor efficacy (in words)” value is recorded as “only showed moderate antitumor efficacy” and the “Tumor volume (day 43)” value is on record as 0.190 ± 0.125* cm^3.

In the case of `CN(Cc1cnc2nc(N)nc(N)c2n1)c1ccc(C(=O)N[C@@H](CCC(=O)O)C(=O)O)cc1` [Methotrexate, methotrexate], in data set [1], the toxic death worked out at 0, the “antitumor efficacy (in words)” value was “only showed moderate antitumor efficacy” and the “Tumor volume (day 43)” value was 0.396 ± 0.307* cm^3.
